Source: US3962256A, “2-Aminomethyl benzimidazole derivatives” (Delalande S.A., priority 1973, dated 1976)
Where a name gives a salt, the structure may show the parent alone.

How the values were obtained:
[1] = Lethal doses / percentage mortality, oral; type: in vivo; conditions: for mortality: in vivo, po
Excerpt: As a result of a comparison between the pharmacologically active doses mentioned above and the lethal doses listed in the following Table XII, the difference between said doses is sufficiently great to permit the utilisation of the compounds of formula (I) in therapeutics.

[2] = test system: gastric ulcers, provoked in a rat by tying of the pylorus (Shay ulcers); assay: Antiulcerous: reduction of Shay ulcers (tying of the pylorus); type: in vivo; conditions: 50 mg/Kg/i.d.
Description: The compounds of formula (I) administered by intraduodenal means reduce the extent of gastric ulcers, provoked in a rat by tying of the pylorus (Shay ulcers).
By way of example, there is listed in the following Table IX, the results obtained by the administrations of 50 mg/Kg/i.d. of different compounds of formula (I).

[3] = test system: explorations in the escape enclosure; assay: Sedative: reduction of number of explorations in the escape enclosure; type: in vivo; conditions: 100 mg/Kg/p.o., mouse
Description: The compounds of formula (I), administered by oral means to the mouse, reduce the number of explorations in the escape enclosure.
By way of example, the following Table VIII lists the results obtained by the administration of 100 mg/Kg/p.o. of different compounds of formula (I).

[4] = test system: oedema caused by the sub-plantar injection of carraghenin; assay: Antiinflammatory: reduction of sub-plantar oedema caused by carraghenin, rat; type: in vivo; conditions: 100 mg/Kg/p.o.
Description: These properties are shown by a diminution of the local oedema caused by the sub-plantar injection of a phlogogenic agent, such as carraghenin, in the rat following the oral administration of compounds of formula (I).
The following Table VI lists, by way of example, the percentage reduction of the oedems caused by the sub-plantar injection of carraghenin, resulting from the administration of 100 mg/Kg/p.o. of different compounds of formula (I).

[5] = test system: bronchoconstriction provoked in the guinea-pig by acetylcholine; assay: Antibronchoconstrictive and anticholinergic: bronchoconstriction by intravenous acetylcholine, Konzett method; type: in vivo
Excerpt: Injected by intraveinous or intraduodenal means, the compounds of formula (I) are capable of opposing the bronchoconstriction provoked in the guinea-pig by the itraveinous injection of acetylcholine by the Konzett method.
By way of example, the following Table VII lists the results obtained by the administration of different compounds of formula (I)

[6] = test system: painful stretchings caused by the intraperitoneal injection of acetic acid; assay: Analgesic: reduction of painful stretchings caused by intraperitoneal acetic acid, oral, mouse; type: in vivo; conditions: 100 mg/Kg/p.o.
Description: The compounds of formula (I), administered by oral means to the mouse, are capable of reducing the number of painful stretchings caused by the intraperitoneal injection of acetic acid.
By way of example, the following Table III lists the results obtained by administration of 100 mg/Kg/p.o. of different compounds of formula (I).

[7] = test system: rat suffering from high blood pressure; assay: Antihypertensive: return of systolic arterial pressure to normal in rats with high blood pressure; type: in vivo
Excerpt: The compounds of formula (I), administered by oral means to a rat suffering from high blood pressure, are capable of lowering the systolic arteriel pressure.
By way of example, there is provided in the following Table IV the results obtained by administration of different compounds of formula (I).

[8] = test system: isolated heart of a guinea-pig; assay: Vasodilatatory: coronary flow of isolated heart; conditions: 1 μg/ml in perfusion liquid
Description: The compounds of formula (I) are capable of augmenting the flow of the coronary vessels of the isolated heart of a guinea-pig when said compounds are added in the perfusion liquid of said organ.
By way of example, there can be found in the following Table X, the percentage augmentation of the flow of the isolated heart of a guinea-pig by adding different compounds of formula (I) to the perfusion liquid, in a concentration of 1 μg/ml.

[9] = test system: ventricular fibrillations provoked by the inhalation of chloroform; assay: Antiarythmic: protection against ventricular fibrillations provoked by inhalation of chloroform; type: in vivo; conditions: i.p., mouse
Excerpt: Administered by intraperitoneal means, the compounds of formula (I) are capable of protecting the mouse against the ventricular fibrillations provoked by the inhalation of chloroform.

[10] = test system: gastric secretion measured after Shay ligature; assay: Gastric antisecretory: reduction of gastric secretion after Shay ligature, rat; type: in vivo; conditions: 50 mg/Kg/i.d.
Description: Administered by intraduodenal means to a rat, the compounds of formula (I) are capable of reducing the gastric secretion measured after Shay ligature.
By way of example, the following Table V gives the results obtained by administration of 50 mg/Kg/i.d. of different compounds of formula (I).

[11] = test system: isolated duodenum of the rat; assay: Spasmolytic: opposing barium chloride contraction of isolated duodenum; conditions: papaverine as standard
Description: The compounds of formula (I), introduced in the conserving medium are capable of opposing the contractural action of barium chloride on the isolated duodenum of the rat. This activity is evaluated by taking papaverine as standard.

O=C(CCn1c(CN2CCOCC2)nc2ccccc21)c1ccc(Cl)cc1 [72 359]
Percentage mortality ([1]; 2 000 mg/Kg/p.o., 2000 mg/kg): 0% | Percentage reduction of Shay ulcers [2]: 35%

COc1ccc(C(=O)CCn2c(CN3CCCCC3)nc3ccccc32)cc1OC [72 377]
Percentage mortality ([1]; 2 000 mg/Kg/p.o., 2000 mg/kg): 0% | Percentage reduction of Shay ulcers [2]: 55% | Percentage reduction of number of explorations in the escape enclosure [3]: 30%

CCN(CC)Cc1nc2ccccc2n1CCC(=O)c1ccc(Cl)cc1 [72 390]
Percentage mortality ([1]; 2 000 mg/Kg/p.o., 2000 mg/kg): 0% | Percentage reduction of Shay ulcers [2]: 40% | Percentage reduction of sub-plantar oedema [4]: 60%

COc1ccc(C(=O)CCn2c(CN3CCOCC3)nc3ccccc32)cc1OC [72 391]
Percentage mortality ([1]; 2 000 mg/Kg/p.o., 2000 mg/kg): 0% | Percentage inhibition of bronchoconstriction ([5]; 100 mg/kg/i.d.): 100% | Percentage reduction of number of painful stretchings [6]: 60% | Percentage reduction of number of explorations in the escape enclosure [3]: 50%

COc1cc(C(=O)CCn2c(CN3CCCC3)nc3ccccc32)cc(OC)c1OC [72 414]
Percentage inhibition of bronchoconstriction ([5]; 100 mg/kg/i.d.): 50% | Percentage of rats with high blood pressure whose systolic arteriel pressure is returned to normal ([7]; 150 mg/Kg/p.o.): 75%

CCCCOc1ccc(C(=O)CCn2c(CN3CCCCC3)nc3ccccc32)cc1 [72 464]
Percentage mortality ([1]; 2 000 mg/Kg/p.o., 2000 mg/kg): 0% | Percentage reduction of number of explorations in the escape enclosure [3]: 30%

Cc1ccc(C(=O)CCn2c(CN3CCOCC3)nc3ccccc32)cc1 [72 478]
Percentage mortality ([1]; 2 000 mg/Kg/p.o., 2000 mg/kg): 0% | Percentage augmentations of flow of isolated heart of a guinea-pig [8]: 50%

CN(C)Cc1nc2ccccc2n1CCC(=O)c1ccc(Cl)cc1 [72 479]
Percentage mortality ([1]; 2 000 mg/Kg/p.o., 2000 mg/kg): 0% | DE 50 [9]: 200 mg/Kg/i.p. | Percentage reduction of Shay ulcers [2]: 30% | Percentage augmentations of flow of isolated heart of a guinea-pig [8]: 80% | Percentage of rats with high blood pressure whose systolic arteriel pressure is returned to normal ([7]; 200 mg/Kg/p.o.): 50%

O=C(CCn1c(CN2CCCCC2)nc2ccccc21)c1ccc(F)cc1 [72 487]
Percentage reductions in volume of gastric secretion [10]: 40% | Percentage inhibition of bronchoconstriction ([5]; 100 mg/kg/i.d.): 60% | Percentage reduction of number of painful stretchings [6]: 80%

O=C(CCn1c(CN2CCCCCC2)nc2ccccc21)c1ccc(F)cc1 [72 488]
Percentage mortality ([1]; 2 000 mg/Kg/p.o., 2000 mg/kg): 0% | DE 50 [9]: 200 mg/Kg/i.p. | Percentage reduction of Shay ulcers [2]: 25% | Percentage reduction of sub-plantar oedema [4]: 50%

COc1ccc(C(=O)CCn2c(CN(C)C)nc3ccccc32)cc1OC [72 490]
Percentage reduction of Shay ulcers [2]: 30% | Percentage augmentations of flow of isolated heart of a guinea-pig [8]: 140%

O=C(CCn1c(CN2CCCCC2)nc2ccccc21)c1ccccc1 [72 491]
Percentage mortality ([1]; 2 000 mg/Kg/p.o., 2000 mg/kg): 0% | Percentage reduction of number of painful stretchings [6]: 65% | Percentage of rats with high blood pressure whose systolic arteriel pressure is returned to normal ([7]; 200 mg/Kg/p.o.): 50%

O=C(CCn1c(CN2CCCC2)nc2ccccc21)c1ccccc1 [72 493]
Percentage reductions in volume of gastric secretion [10]: 25%

O=C(CCn1c(CN2CCOCC2)nc2ccccc21)c1ccccc1 [72 494]
mortality ([1]; 2000 mg/kg, 2 000 mg/Kg/p.o.): 0% | Percentage reductions in volume of gastric secretion [10]: 25% | Percentage reduction of sub-plantar oedema [4]: 40%

CCCCOc1ccc(C(=O)CCn2c(CN3CCOCC3)nc3ccccc32)cc1 [72 523]
Percentage mortality ([1]; 2 000 mg/Kg/p.o., 2000 mg/kg): 0% | Percentage reductions in volume of gastric secretion [10]: 25% | Percentage reduction of number of painful stretchings [6]: 45%

COc1cc(C(=O)CCn2c(CN3CCOCC3)nc3ccccc32)cc(OC)c1OC.O=C(O)/C=C\C(=O)O [72 525]
Percentage inhibition of bronchoconstriction ([5]; 100 mg/kg/i.d.): 80% | Percentage of rats with high blood pressure whose systolic arteriel pressure is returned to normal ([7]; 200 mg/Kg/p.o.): 50%

O=C(CCn1c(CN2CCOCC2)nc2ccccc21)c1ccc(F)cc1.O=C(O)/C=C\C(=O)O [72 526]
Percentage reduction of Shay ulcers [2]: 40% | Percentage reduction of sub-plantar oedema [4]: 55% | Percentage inhibition of bronchoconstriction ([5]; 100 mg/kg/i.d.): 75% | Percentage of rats with high blood pressure whose systolic arteriel pressure is returned to normal ([7]; 100 mg/Kg/p.o.): 75%

COc1cc(C(=O)CCn2c(CN(C)C)nc3ccccc32)cc(OC)c1OC [72 534]
Percentage mortality ([1]; 2 000 mg/Kg/p.o., 2000 mg/kg): 0% | Percentage inhibition of bronchoconstriction ([5]; 100 mg/kg/i.d.): 50%

Cc1ccc(C(=O)CCn2c(CN3CCCCC3)nc3ccccc32)c(C)c1 [72 540]
Percentage mortality ([1]; 2 000 mg/Kg/p.o., 2000 mg/kg): 0% | Percentage inhibition of bronchoconstriction ([5]; 100 mg/kg/i.d.): 50% | Percentage reduction of number of explorations in the escape enclosure [3]: 30%

CCN(CC)Cc1nc2ccccc2n1CCC(=O)c1ccc(F)cc1.O=C(O)/C=C\C(=O)O [72 568]
DE 50 [9]: 200 mg/Kg/i.p. | Percentage of rats with high blood pressure whose systolic arteriel pressure is returned to normal ([7]; 200 mg/Kg/p.o.): 50%

CCN(CC)Cc1nc2ccccc2n1CCC(=O)c1ccccc1 [72 573, 1-(2'-benzoylethyl maleate)-2-diethylaminomethyl benzimidazole]
mortality ([1]; 1 250 mg/Kg/p.o.): ~50% | Percentage inhibition of bronchoconstriction ([5]; 5 mg/kg/i.v.): 100% | spasmolytic activity relative to papaverine [11]: equivalent spasmolytic actvity to that of papaverine

CCN(CC)Cc1nc2ccccc2n1CCC(=O)c1ccc(C)cc1.O=C(O)/C=C\C(=O)O [72 574]
Percentage reduction of Shay ulcers [2]: 45% | Percentage reduction of number of painful stretchings [6]: 45%

COc1ccc(C(=O)CCn2c(CN3CCCC3)nc3ccccc32)cc1OC [72 617]
Percentage reduction of number of painful stretchings [6]: 70%

CN(C)Cc1nc2ccccc2n1CCC(=O)c1ccc(F)cc1.O=C(O)/C=C\C(=O)O [72 663]
Percentage reduction of number of painful stretchings [6]: 60% | Percentage reduction of number of explorations in the escape enclosure [3]: 30%

O=C(CCn1c(CN2CCCC2)nc2ccccc21)c1ccc(F)cc1 [72 708]
Percentage reduction of Shay ulcers [2]: 30% | Percentage inhibition of bronchoconstriction ([5]; 100 mg/kg/i.d.): 90% | Percentage reduction of number of painful stretchings [6]: 60% | spasmolytic activity relative to papaverine [11]: equivalent spasmolytic actvity to that of papaverine

Cc1ccc(C(=O)CCn2c(CN(C)C)nc3ccccc32)c(C)c1 [72 712]
Percentage mortality ([1]; 2 000 mg/Kg/p.o., 2000 mg/kg): 0% | Percentage reduction of Shay ulcers [2]: 55% | Percentage reduction of sub-plantar oedema [4]: 70% | Percentage reduction of number of explorations in the escape enclosure [3]: 40%

CCCCOc1ccc(C(=O)CCn2c(CN(CC)CC)nc3ccccc32)cc1 [72 727]
Percentage inhibition of bronchoconstriction ([5]; 100 mg/kg/i.d.): 100%
